Measured values reported in ChEMBL document CHEMBL3588813, “Antifungal Amphiphilic Aminoglycosides” (Medchemcomm, 2014).
In brackets after ≈: the same amount, converted by molar mass.

Tests used:
[1] = system: Cladosporium cladosporioides; assay: Antimicrobial activity against Cladosporium cladosporioides using potato dextrose broth as growth medium and diluent; format: functional
[2] = Induction of hemolysis in sheep erythrocytes at 28 ug/ml; format: cell-based, Ovis aries, Erythrocyte; conditions: read-out: Activity
Fusarium graminearum [3] = assay: Antimicrobial activity against Fusarium graminearum B4-5A using RPMI medium by microbroth dilution assay; format: functional
Escherichia coli = assay: Antimicrobial activity against Escherichia coli ATCC 25922 using potato dextrose broth as growth medium and diluent; format: functional
Fusarium graminearum [4] = assay: Antimicrobial activity against Fusarium graminearum […] in wheat assessed as reduction in Fusarium head blight disease incidence at 1080 ug/ml pre-treated 24 hrs before infection; format: functional
Microdochium nivale = assay: Antimicrobial activity against Microdochium nivale using potato dextrose broth as growth medium and diluent; format: functional
Botrytis cinerea = assay: Antimicrobial activity against Botrytis cinerea using potato dextrose broth as growth medium and diluent; format: functional
Verticillium = assay: Antimicrobial activity against Verticillium spp. using potato dextrose broth as growth medium and diluent; format: functional
Staphylococcus aureus = assay: Antimicrobial activity against Staphylococcus aureus using potato dextrose broth as growth medium and diluent; format: functional
Globisporangium ultimum = assay: Antimicrobial activity against Pythium ultimum using potato dextrose broth as growth medium and diluent; format: functional
Ulocladium = assay: Antimicrobial activity against Ulocladium spp. using potato dextrose broth as growth medium and diluent; format: functional; conditions: Alternaria sect. Ulocladium
[5] = Induction of hemolysis in sheep erythrocytes at 313 ug/ml; format: cell-based, Ovis aries, Erythrocyte; conditions: read-out: Activity
Fusarium graminearum [6] = assay: Antimicrobial activity against Fusarium graminearum B4-5A infection in wheat assessed as reduction in spikelet infection rate at 30 ug/ml pre-treated 24 hrs before infection; format: functional
Fusarium graminearum [7] = assay: Antimicrobial activity against Fusarium graminearum B4-5A infection in wheat assessed as reduction in spikelet infection rate at 5 ug/ml pre-treated 24 hrs before infection; format: functional
[8] = Selectivity index, ratio of IC50 for mouse NIH/3T3 cells to MIC for Saccharomyces cerevisiae
Fusarium oxysporum = assay: Antimicrobial activity against Fusarium oxysporum using potato dextrose broth as growth medium and diluent; format: functional
Fusarium graminearum [9] = assay: Antimicrobial activity against Fusarium graminearum B4-5A infecrtion in wheat assessed as Fusarium head blight disease incidence at 1080 ug/ml pre-treated 24 hrs before infection (reference value: 61%); format: functional
Candida albicans = assay: Antimicrobial activity against Candida albicans 10231 using potato dextrose broth as growth medium and diluent; format: functional
[10] = Cytotoxic activity against mouse NIH/3T3 cells; format: cell-based, NIH3T3
Fusarium graminearum [11] = assay: Antimicrobial activity against Fusarium graminearum B4-5A using potato dextrose broth as growth medium and diluent; format: functional
Curvularia brachyspora = assay: Antimicrobial activity against Curvularia brachyspora using potato dextrose broth as growth medium and diluent; format: functional
Rhodotorula mucilaginosa = assay: Antimicrobial activity against Rhodotorula piliminae using potato dextrose broth as growth medium and diluent; format: functional
[12] = Cytotoxic activity against human C8161.9 cells; format: cell-based
Fusarium graminearum [13] = assay: Antimicrobial activity against Fusarium graminearum B4-5A infecrtion in wheat assessed as Fusarium head blight disease incidence at 180 ug/ml pre-treated 24 hrs before infection (reference value: 61%); format: functional
Phoma = assay: Antimicrobial activity against Phoma spp. using potato dextrose broth as growth medium and diluent; format: functional
Rhizopus stolonifer = assay: Antimicrobial activity against Rhizopus stolonifer using potato dextrose broth as growth medium and diluent; format: functional
Fusarium graminearum [14] = assay: Antimicrobial activity against Fusarium graminearum B4-5A infecrtion in wheat assessed as Fusarium head blight disease incidence at 5 ug/ml pre-treated 24 hrs before infection (reference value: 61%); format: functional
Fusarium graminearum [15] = assay: Antimicrobial activity against Fusarium graminearum B4-5A infecrtion in wheat assessed as Fusarium head blight disease incidence at 30 ug/ml pre-treated 24 hrs before infection (reference value: 61%); format: functional
[16] = Selectivity index, ratio of IC50 for human C8161.9 cells to MIC for Saccharomyces cerevisiae

Which MIC [1] does the source give for `CCCCCCCCO[C@H]1[C@H](N)[C@@H](O)[C@@H](O[C@@H]2[C@@H](O)[C@H](O[C@H]3O[C@H](CN)[C@@H](O)[C@H](O)[C@H]3N)[C@@H](N)C[C@H]2N)O[C@@H]1C` here?
The MIC was 31.3 µg/mL (≈ 54 µM).

What about the hemolysis at 28 ug/ml [2] of the same compound?
The hemolysis at 28 ug/ml was 2%.

And the MIC (Fusarium graminearum [3])?
The MIC was 31.5 µg/mL (≈ 54.3 µM).

And the MIC (Escherichia coli)?
Its MIC is 250 µg/mL (≈ 431 µM).

What about the inhibition at 1080 µg/mL (Fusarium graminearum [4]) of the same compound?
The inhibition at 1080 µg/mL was 82%.

What about the MIC (Microdochium nivale) of the same compound?
The MIC was 3.9 µg/mL (≈ 6.73 µM).

What about the MIC (Botrytis cinerea) of the same compound?
Its MIC is 31.3 µg/mL (≈ 54 µM).

And the MIC (Verticillium)?
Its MIC is 15.2 µg/mL (≈ 26.2 µM).

What about the MIC (Staphylococcus aureus) of the same compound?
Its MIC is 62.5 µg/mL (≈ 108 µM).

And the MIC (Globisporangium ultimum)?
The MIC was 15.6 µg/mL (≈ 26.9 µM).

What about the MIC (Ulocladium) of the same compound?
Its MIC is 7.8 µg/mL (≈ 13.5 µM).

And the hemolysis at 313 ug/ml [5]?
The hemolysis at 313 ug/ml was over 20%.

And the inhibition at 30 µg/mL (Fusarium graminearum [6])?
The inhibition at 30 µg/mL was 49%.

What about the inhibition at 5 µg/mL (Fusarium graminearum [7]) of the same compound?
Its inhibition at 5 µg/mL is 29%.

What about the “Selectivity Index” value [8] of the same compound?
The value was 10.

What about the MIC (Fusarium oxysporum) of the same compound?
The MIC was 7.8 µg/mL (≈ 13.5 µM).

And the Activity (Fusarium graminearum [9])?
Its Activity is 80%.

What about the MIC (Candida albicans) of the same compound?
The MIC was 31.3 µg/mL (≈ 54 µM).

And the IC50 ([10]; Mus musculus, NIH3T3)?
Its IC50 is over 250 µg/mL.

What about the Activity ([10]; mouse, nih3t3) of the same compound?
The Activity was “Dose-dependent effect”.

And the MIC (Fusarium graminearum [11])?
Its MIC is 7.8 µg/mL (≈ 13.5 µM).

And the MIC (Curvularia brachyspora)?
The MIC was 31.3 µg/mL (≈ 54 µM).

And the MIC (Rhodotorula mucilaginosa)?
The MIC was 7.8 µg/mL (≈ 13.5 µM).

And the IC50 ([12]; Homo sapiens)?
The IC50 was over 250 µg/mL.

And the Activity ([12]; human)?
Its Activity is “Dose-dependent effect”.

And the Activity (Fusarium graminearum [13])?
The Activity was 76%.

And the MIC (Phoma)?
Its MIC is 31.3 µg/mL (≈ 54 µM).

And the MIC (Rhizopus stolonifer)?
The MIC was 31.3 µg/mL (≈ 54 µM).

And the Activity (Fusarium graminearum [14])?
Its Activity is 76%.

What about the Activity (Fusarium graminearum [15]) of the same compound?
The Activity was 70%.

And the “Selectivity Index” value [16]?
Its value is 10.
